We go through 11 substances from patent publication US8530430B2, “TTK peptides and vaccines including the same” (Oncotherapy Science, Inc., priority 2009, dated 2013).

In assay [1] the test system is peptide-pulsed T2 cells. Put plainly: IFN-gamma ELISA assay of established CTL lines and CTL clone. The settings on record: for IFN-gamma production of CTL lines: CTL line established with the peptide, target cells pulsed with corresponding peptide vs without peptide pulse. The format is cell-based, human. Here is the method: CTLs were expanded in culture using the method similar to the one described by Riddell et al. (Walter E A et al., N Engl J Med 1995 Oct. 19, 333(16): 1038-44; Riddell S R et al., Nat Med 1996 February, 2(2): 216-23). A total of 5×10^4 CTLs were resuspended in 25 ml of AIM-V/5% AS medium with 2 kinds of human B-lymphoblastoid cell lines, inactivated by Mitomycin C, in the presence of 40 ng/ml of anti-CD3 monoclonal antibody (Pharmingen). One day after initiating the cultures, 120 IU/ml of IL-2 were added to the cultures. The cultures were fed with fresh AIM-V/5% AS medium containing 30 IU/ml of IL-2 on days 5, 8 and 11 (Tanaka H et al., Br J Cancer 2001 Jan. 5, 84(1): 94-9; Umano Y et al., Br J Cancer 2001 Apr. 20, 84(8): 1052-7; Uchida N et al., Clin Cancer Res 2004 Dec. 15, 10(24): 8577-86; Suda T et al., Cancer Sci 2006 May, 97(5): 411-9; Watanabe T et al., Cancer Sci 2005 August, 96(8): 498-506).
The dilutions were made to have 0.3, 1, and 3 CTLs/well in 96 round-bottomed micro titer plate (Nalge Nunc International). CTLs were cultured with 1×10^4 cells/well of 2 kinds of human B-lymphoblastoid cell lines, 30 ng/ml of anti-CD3 antibody, and 125 U/ml of IL-2 in a total of 150 micro-l/well of AIM-V Medium containing 5% AS. 50 micro-1/well of IL-2 were added to the medium 10 days later so to reach a final concentration of 125 U/ml IL-2. CTL activity was tested on the 14th day, and CTL clone was expanded using the same method as described above (Uchida N et al., Clin Cancer Res 2004 Dec. 15, 10(24): 8577-86; Suda T et al., Cancer Sci 2006 May, 97(5): 411-9; Watanabe T et al., Cancer Sci 2005 August, 96(8): 498-506).
(§1) Specifically, peptide-pulsed T2 (1×10^4/well) was prepared as stimulator cells. Cultured cells in 48 wells were used as responder cells. IFN-gamma ELISPOT assay and IFN-gamma ELISA assay were performed under manufacture procedure.
Background: ELISA stands for enzyme-linked immunosorbent assay.

For assay [2], the system named is peptide-pulsed T2 cells. Put plainly: IFN-gamma ELISPOT assay on CTLs induced with TTK peptides. The assay is classed as cell-based, human. The settings on record: wells of CTLs stimulated with the peptide, against peptide-pulsed target cells compared to control wells.
Excerpt: Monocyte-derived dendritic cells (DCs) were used as antigen-presenting cells (APCs) to induce cytotoxic T lymphocyte (CTL) responses against peptides presented on human leukocyte antigen (HLA). DCs were generated in vitro as described elsewhere (Nakahara S et al., Cancer Res 2003 Jul. 15, 63(14): 4112-8). Specifically, peripheral blood mononuclear cells (PBMCs) isolated from a normal volunteer (HLA-A*0201 positive) by Ficoll-Plaque (Pharmacia) solution were separated by adherence to a plastic tissue culture dish (Becton Dickinson) so as to enrich them as the monocyte fraction. The monocyte-enriched population was cultured in the presence of 1,000 U/ml of granulocyte-macrophage colony-stimulating factor (GM-CSF) (R&D System) and 1,000 U/ml of interleukin (IL)-4 (R&D System) in AIM-V Medium (Invitrogen) containing 2% heat-inactivated autologous serum (AS). After 7 days of culture, the cytokine-induced DCs were pulsed with 20 micro-g/ml of each of the synthesized peptides in the presence of 3 micro-g/ml of beta 2-microglobulin for 3 hrs at 37 degrees C. in AIM-V Medium. The generated cells appeared to express DC-associated molecules, such as CD80, CD83, CD86 and HLA class II, on their cell surfaces (data not shown). These peptide-pulsed DCs were then inactivated by X-irradiation (20 Gy) and mixed at a 1:20 ratio with autologous CD8+ T cells, obtained by positive selection with CD8 Positive Isolation Kit (Dynal). These cultures were set up in 48-well plates (Corning); each well contained 1.5×10^4 peptide-pulsed DCs, 3×10^5 CD8+ T cells and 10 ng/ml of IL-7 (R&D System) in 0.5 ml of AIM-V/2% AS medium. Three days later, these cultures were supplemented with IL-2 (CHIRON) to a final concentration of 20 IU/ml. On days 7 and 14, the T cells were further stimulated with the autologous peptide-pulsed DCs. The DCs were prepared each time by the same way described above. CTL was tested against peptide-pulsed T2 cells after the 3rd round of peptide stimulation on day 21 (Tanaka H et al., Br J Cancer 2001 Jan. 5, 84(1): 94-9; Umano Y et al., Br J Cancer 2001 Apr. 20, 84(8): 1052-7; Uchida N et al., Clin Cancer Res 2004 Dec. 15, 10(24): 8577-86; Suda T et al., Cancer Sci 2006 May, 97(5): 411-9; Watanabe T et al., Cancer Sci 2005 August, 96(8): 498-506).
as §1

Assay [3] deals with COS7 transfected with both the full length TTK gene and the HLA-A*0201 molecule. The settings on record: results of WO2008/102557 duplicated as FIG. 4; cited from earlier work.
The subject of assay [4] is COS7 cells transfected with both the full length of TTK and HLA-A*0201 gene. Put plainly: Specific CTL activity against target cells expressing TTK and HLA-A*0201. The format is cell-based, African green monkey. The source says: (§2) The cDNA encoding an open reading frame of target genes or HLA-A*0201 was amplified by PCR. The PCR-amplified products were cloned into a vector. The plasmids were transfected into COS7, which is the target genes and HLA-A*0201-negative cell line, using lipofectamine 2000 (Invitrogen) according to the manufacturer's recommended procedures. After 2 days from transfection, the transfected cells were harvested with versene (Invitrogen) and used as the target cells (5×10^4 cells/well) for CTL activity assay.
(§3) The established CTL lines and clones raised against each peptide were examined for the ability to recognize target cells that express TTK and HLA-A*0201 molecule. […] COS7 cells transfected with either full length of TTK genes or HLA-A*0201 were prepared as controls. […] And then this peptide-HLA complex was recognized by the CTLs.

Assay [5] deals with TE1 cells. Put plainly: Specific CTL activity against HLA-A2 negative, TTK positive control tumor cell line TE-1. The assay is classed as cell-based, human.
Excerpt: (§4) T2 (HLA-A2), human B-lymphoblastoid cell line and COST, African green monkey kidney cell line, were purchased from ATCC. HLA-A2 positive and TTK positive tumor cell line, H1650, was purchased from ATCC. HLA-A2 negative and TTK positive cell lines, PC-3 and TE-1, were purchased from JCRB Cell bank and RIKEN Cell Bank, respectively.
as §3

Assay [6] concerns PC3 cells. Put plainly: Specific CTL activity against HLA-A2 negative, TTK positive control tumor cell line PC-3. The format is cell-based, human.
Excerpt: as §4, §3

The subject of assay [7] is H1650 cells. Put plainly: Specific CTL activity against HLA-A2 positive, TTK positive tumor cell line. The assay is classed as cell-based, human. The settings on record: FIG. 3c.
Excerpt: as §4, §3

Assay [8] deals with COS7 cells transfected with either full length of TTK genes or HLA-A*0201. Put plainly: Specific CTL activity against control COS7 transfectants. The format is cell-based, African green monkey. The settings on record: CTL line and clone; COS7 expressing either TTK or HLA-A*0201 only.
Excerpt: as §2, §3

Regarding “TTK-A02-9-142: 9-mer HLA-A*0201 binding candidate peptide derived from TTK, SEQ ID NO: 15 (FAFVHISFA)”, the “IFN-gamma production of CTL lines” value in assay [1] is on record as “potent IFN-gamma production”. Also, the “IFN-gamma production of peptide-induced CTLs (peptide specific CTL activity)” value in assay [2] was “potent IFN-gamm production”.

Consider “TTK-A02-9-146: 9-mer HLA-A*0201 binding candidate peptide derived from TTK, SEQ ID NO: 19 (HISFAQFEL)”, for which, in assay [2], the “IFN-gamma production of peptide-induced CTLs (peptide specific CTL activity)” value is recorded as “potent IFN-gamm production”.

“TTK-A02-9-462: 9-mer HLA-A*0201 binding candidate peptide derived from TTK, SEQ ID NO: 1 (YMSCFRTPV)”: the “IFN-gamma production of CTL lines” value in assay [1] is reported as “potent IFN-gamma production”. In addition, the “IFN-gamma production of peptide-induced CTLs (peptide specific CTL activity)” value in assay [2] is recorded as “potent IFN-gamm production”. The “Specific CTL activity of CTL clones against COS7 transfected with both TTK and HLA-A*0201” value (“Specific CTL activity of CTL clones” for short) in assay [3] is recorded as “specific CTL activity”.

Consider “TTK-A02-9-547: 9-mer peptide derived from TTK, SEQ ID NO: 5, disclosed in Applicants' WO2008/102557 (KQIYAIKYV)”, for which the “Specific CTL activity of CTL clones” value in assay [3] is “specific CTL activity”.

For the substance “TTK-A02-9-564: 9-mer HLA-A*0201 binding candidate peptide derived from TTK, SEQ ID NO: 20 (TLDSYRNEI)”, in assay [2], the “IFN-gamma production of peptide-induced CTLs (peptide specific CTL activity)” value is reported as “potent IFN-gamm production”.

As for “TTK-A02-9-593: nonapeptide derived from TTK, HLA-A2 restricted epitope peptide, SEQ ID NO: 3 (ITDQYIYMV)”, in assay [1] (CTL clone established by limiting dilution from the CTL line, target cells pulsed with peptide), the “IFN-gamma production of CTL clone” value is listed as “Potent IFN-gamma productions”. For the same substance, the “IFN-gamma production of CTL lines” value in assay [1] is “potent IFN-gamma production”. In assay [2], the “IFN-gamma production of peptide-induced CTLs (peptide specific CTL activity)” value is “potent IFN-gamm production”. For the same substance, the “CTL activity of CTL clone against COS7 cells expressing both TTK and HLA-A*0201” value in assay [4] (CTL clone stimulated with the peptide as effector cells (FIG. 3b)) was “potent CTL activity”. Besides, in assay [4] (CTL line stimulated with the peptide as effector cells (FIG. 3a)), the “CTL activity of CTL line against COS7 cells expressing both TTK and HLA-A*0201” value is recorded as “potent CTL activity”. Further, in assay [4] (compared to TTK-A2-9-462, TTK-A02-9-547, TTK-A2-9-719 and TTK-A2-10-462 (FIG. 3 vs FIG. 4)), the “Increase in the IFN-gamma production compared to the peptides of WO2008/102557” value is recorded as “one or two orders of magnitude”. Moreover, the “Specific CTL activity of CTL clone against control tumor cells” value in assay [5] and in assay [6] was “no significant specific CTL activity was detected” each time. Besides, the “Specific CTL activity of CTL clone against tumor cell line endogenously expressing both TTK and HLA-A*0201” value in assay [7] was “specific CTL activity”. Moreover, the “Specific CTL activity against the controls” value in assay [8] is listed as “no significant specific CTL activity was detected”.

For the substance “TTK-A02-9-630: 9-mer HLA-A*0201 binding candidate peptide derived from TTK, SEQ ID NO: 2 (NMLEAVHTI)”, the “IFN-gamma production of CTL lines” value in assay [1] was “potent IFN-gamma production”. In addition, the “IFN-gamma production of peptide-induced CTLs (peptide specific CTL activity)” value in assay [2] was “potent IFN-gamm production”.

Turning to “TTK-A02-9-719: 9-mer HLA-A*0201 binding candidate peptide derived from TTK, SEQ ID NO: 6 (SLGCILYYM)”, the “IFN-gamma production of CTL lines” value in assay [1] is listed as “potent IFN-gamma production”. Moreover, the “IFN-gamma production of peptide-induced CTLs (peptide specific CTL activity)” value in assay [2] was “potent IFN-gamm production”. In assay [3], the “Specific CTL activity of CTL clones” value is reported as “specific CTL activity”.

For the substance “TTK-A02-10-462: 10-mer HLA-A*0201 binding candidate peptide derived from TTK, SEQ ID NO: 22 (YMSCFRTPVV)”, the “IFN-gamma production of CTL lines” value in assay [1] is “potent IFN-gamma production”. Also, the “IFN-gamma production of peptide-induced CTLs (peptide specific CTL activity)” value in assay [2] is recorded as “potent IFN-gamm production”. Further, the “Specific CTL activity of CTL clones” value in assay [3] was “specific CTL activity”.

Take “TTK-A02-10-542: 10-mer HLA-A*0201 binding candidate peptide derived from TTK, SEQ ID NO: 34 (VLNEKKQIYA)”: in assay [2], the “IFN-gamma production of peptide-induced CTLs (peptide specific CTL activity)” value is listed as “potent IFN-gamm production”.

Consider “TTK-A02-10-661: 10-mer HLA-A*0201 binding candidate peptide derived from TTK, SEQ ID NO: 35 (KLIDFGIANQ)”, for which, in assay [2], the “IFN-gamma production of peptide-induced CTLs (peptide specific CTL activity)” value is “potent IFN-gamm production”.
